# Results reported in PMC5155152, “A diverse intrinsic antibiotic resistome from a cave bacterium” (Nature Communications, 2016).
# What was measured:
# Assay type in all cases: biochemical, Paenibacillus sp. LC231
# AAC(6′)-34 = tested on: T1, AAC(6′)-34; assay: CoA liberation with DTDP, steady-state kinetics; conditions: 35 μM sisomicin, 25 mM MES pH 6.0, 1 mM EDTA, 25 °C
# T1 construct: recombinant in E. coli BL21(DE3), pET vector, Ni-NTA purified
# VatI = tested on: T2, VatI; assay: steady-state kinetics; conditions: 100 μM flopristin, 50 mM HEPES pH 7.5, 150 mM NaCl, 0.1 mM EDTA, 25 °C
# T2 construct: recombinant in E. coli BL21(DE3), pET vector, Ni-NTA purified
# CpaA = tested on: T3, CpaA; assay: spectrophotometric steady-state kinetics; conditions: 5 μM capreomycin, 50 mM HEPES pH 7.5, 150 mM NaCl, 0.1 mM EDTA, room temperature
# T3 construct: recombinant in E. coli BL21(DE3), pET vector, Ni-NTA purified
smiles,measurement,setting,value
CC(=O)SCCNC(=O)CCNC(=O)[C@H](O)C(C)(C)COP(=O)(O)OP(=O)(O)OC[C@H]1O[C@@H](n2cnc3c(N)ncnc32)[C@H](O)[C@@H]1OP(=O)(O)O [acetyl-CoA],Km,AAC(6′)-34,220 ± 26 µM
same,Km,VatI,48 ± 3 µM
same,Km,CpaA,39 ± 3 µM
